Results from EP0372667A1, “2-Hydroxymethyl thiophene derivatives, process for their preparation and their use as medicaments” (SCHERING AKTIENGESELLSCHAFT, priority 1988, dated 1990).
Counter-ions that a name gives are not always drawn.

What was measured:
[1] = tested on: wachen, spontan hypertensiven Ratten; assay: Blood pressure and heart rate in conscious spontaneously hypertensive rats; details: in vivo
Text: (§1) Die Messungen von Blutdruck und Herzfrequenz wurden an der spontan hypertensiven Ratte und am narkotisierten, normotensiven Hund durchgeführt (siehe Tabelle 1 und 2).

[2] = tested on: narkotisierten, normtensiven Hunden; assay: Blood pressure and heart rate in anaesthetised normotensive dogs; type: in vivo, Beagle-Hunde; details: anaesthetised normotensive dog, at a dose giving a similar fall in blood pressure; text summary of Tabelle 2
Text: as §1

Compound	Herzfrequenz (result in words) [1]	Herzfrequenz (result in words) [2]
Cc1cc2c(s1)CCC(CN[C@@H]1CC[C@@H](Oc3ccccc3)[C@@H]1O)C2=O (relative stereo) [MDL 19744 A]	ausgeprägten Herzfrequenzsteigerung	ausgeprägten Herzfrequenzsteigerung
O=C1c2cc(CO)sc2CCC1CN[C@@H]1CC[C@@H](Oc2ccccc2)[C@@H]1O (relative stereo) [Beispiel 1, 5-[N-((Z)-2-Hydroxy-(E)-3-phenoxy-cyclopentyl)-aminomethyl]-4,5,6,7-tetrahydro-2-hydroxymethyl-benzothiophen-4-on, Hydrochlorid]	Herzfrequenzerniedrigung	praktisch keine Herzfrequenzänderung
